In general, chromatographic logD refers to lipophilicity estimated from chromatographic retention.

Where two headings read alike, the source gives them in different places.

11 compounds from patent US20240116985A1, “STAPLED PEPTIDES AND METHODS THEREOF” (priority 2020, published 2024) can be followed below.

One data set in a line: CHI Log D procedure. It is filed as physicochemical. As to conditions: for CHI Log D: pH 7.4; for chromatographic logD: pH 7.4, CHI Log D.
In data set [1] the target is T1, full-length beta-Catenin (Uniprot ID P35222) (Homo sapiens, UniProt P35222).
T1 construct: 10 nM full-length beta-Catenin (Uniprot ID P35222)
T1 sequence (P35222 1-781): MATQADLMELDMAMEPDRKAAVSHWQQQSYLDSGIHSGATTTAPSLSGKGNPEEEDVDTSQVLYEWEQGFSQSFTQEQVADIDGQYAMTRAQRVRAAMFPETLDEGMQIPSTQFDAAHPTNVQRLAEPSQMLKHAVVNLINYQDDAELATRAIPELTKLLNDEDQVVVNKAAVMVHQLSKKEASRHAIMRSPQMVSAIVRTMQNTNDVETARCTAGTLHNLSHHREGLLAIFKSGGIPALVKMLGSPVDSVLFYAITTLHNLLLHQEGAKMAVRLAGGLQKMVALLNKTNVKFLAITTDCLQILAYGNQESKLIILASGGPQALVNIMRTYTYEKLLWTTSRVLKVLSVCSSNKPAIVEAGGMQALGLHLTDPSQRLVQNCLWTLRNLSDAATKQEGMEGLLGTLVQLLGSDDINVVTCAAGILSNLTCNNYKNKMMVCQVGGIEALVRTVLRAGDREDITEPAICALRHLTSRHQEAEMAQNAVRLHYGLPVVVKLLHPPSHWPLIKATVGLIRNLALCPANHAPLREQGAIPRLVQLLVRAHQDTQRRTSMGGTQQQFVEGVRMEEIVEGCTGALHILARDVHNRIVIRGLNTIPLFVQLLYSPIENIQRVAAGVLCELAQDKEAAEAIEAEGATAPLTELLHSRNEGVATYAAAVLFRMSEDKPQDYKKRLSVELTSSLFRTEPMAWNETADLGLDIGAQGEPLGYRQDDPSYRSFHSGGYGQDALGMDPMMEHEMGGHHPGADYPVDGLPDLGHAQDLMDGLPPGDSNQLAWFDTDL
Briefly: Fluorescence polarization IC50 (beta-catenin / 5FAM-TCF4 10-53 competition). It is filed as binding. In general terms: Fluorescence polarisation rises when a labelled molecule tumbles more slowly, as on binding a larger partner.

Consider `CC(=O)N1CCC[C@]12CC=CCCCC1(CCCC=CCCCCCC[C@@](C)(C(=O)N[C@@H](Cc3ccccc3)C(=O)N[C@@H](Cc3csc4ccccc34)C(=O)N[C@H](CC(N)=O)C(N)=O)NC(=O)[C@H](CC(N)=O)NC(=O)[C@H](Cc3ccccc3)NC(=O)[C@H](C)NC(=O)[C@H](C)NC(=O)[C@H](CCC(=O)O)NC(=O)[C@H](CC(=O)O)NC1=O)NC(=O)[C@H](CC(C)C)NC(=O)[C@H](CC(=O)O)NC2=O` (stereo partly drawn) [I-757, Ac-PL3-Asp-Leu-B5-Asp-Glu-Ala-Ala-Phe-Asn-S8-Phe-BztA-dAsn-NH2], for which the “CHI Log D” value in the data set “CHI Log D procedure” is listed as 2.546. Also, the IC50 in data set [1] (read-out: FP EC50) and in data set [1] (read-out: beta-Catenin FP IC50) was 64 nM each time.

As to `CC(=O)N1CCC[C@]12CC=CCCCC1(CCCC=CCCCCCC[C@@](C)(C(=O)N[C@@H](Cc3ccccc3)C(=O)N[C@@H](Cc3csc4ccccc34)C(=O)N(C)[C@@H](CO)C(N)=O)NC(=O)[C@H](CC(N)=O)NC(=O)[C@H](Cc3ccccc3)NC(=O)[C@H](C)NC(=O)[C@H](C)NC(=O)[C@H](CCC(=O)O)NC(=O)[C@H](CC(=O)O)NC1=O)NC(=O)[C@H](CC(C)C)NC(=O)[C@H](CC(=O)O)NC2=O` (stereo partly drawn) [I-759, Ac-PL3-Asp-Leu-B5-Asp-Glu-Ala-Ala-Phe-Asn-S8-Phe-BztA-NMeS-NH2], the “CHI Log D” value in the data set “CHI Log D procedure” came to 2.582. Besides, the IC50 in data set [1] (read-out: FP EC50) and in data set [1] (read-out: beta-Catenin FP IC50) was 1530 nM each time.

As for `CC(=O)N1CCC[C@]12CC=CCCCC1(CCCC=CCCCCCC[C@@](C)(C(=O)N[C@@H](Cc3ccccc3)C(=O)N[C@@H](Cc3csc4ccccc34)C(=O)N(C)[C@@H](CO)C(N)=O)NC(=O)[C@H](CC(N)=O)NC(=O)[C@H](Cc3ccccc3)NC(=O)[C@H](C)NC(=O)[C@H](C)NC(=O)[C@H](CCC(=O)O)NC(=O)[C@H](CC(=O)O)NC1=O)NC(=O)[C@H](CC(C)C)NC(=O)[C@H](CC(=O)O)NC2=O` (stereo partly drawn) [I-760, Ac-PL3-Asp-Leu-B5-Asp-Glu-Ala-Ala-Phe-Asn-S8-Phe-BztA-NMeS-NH2], the “CHI Log D” value in the data set “CHI Log D procedure” was 2.66. For the same compound, the IC50 in data set [1] (read-out: FP EC50) and in data set [1] (read-out: beta-Catenin FP IC50) was 608 nM in each case.

As for `CC(=O)N1CCC[C@]12CC=CCCCC1(CCCC=CCCCOC(=O)N3CC[C@@](C(=O)N[C@@H](Cc4ccsc4)C(=O)N[C@@H](Cc4csc5ccccc45)C(=O)N[C@@H](CCC(N)=O)C(N)=O)(C3)NC(=O)[C@H](CCC(N)=O)NC(=O)[C@H](Cc3ccccc3)NC(=O)[C@H](C)NC(=O)[C@H](C)NC(=O)[C@H](CC(=O)O)NC(=O)[C@H](CC(=O)O)NC1=O)NC(=O)[C@H](CC(C)(C)C)NC(=O)[C@H](CC(=O)O)NC2=O` (stereo partly drawn) [I-763, Ac-PL3-Asp-Npg-B5-Asp-Asp-Ala-Ala-Phe-Gln-PyrS2-3Thi-BztA-Gln-NH2], the “CHI Log D” value in “CHI Log D procedure” turned out to be 1.967. Moreover, the IC50 in data set [1] (read-out: beta-Catenin FP IC50) came out at 5 nM.

`CC(=O)N1CCC[C@]12CC=CCCCC1(CCCC=CCCCOC(=O)N3CC[C@@](C(=O)N[C@@H](Cc4ccsc4)C(=O)N[C@@H](Cc4c[nH]c5cc(Cl)ccc45)C(=O)N[C@@H](Cc4c[nH]cn4)C(N)=O)(C3)NC(=O)[C@H](CC(N)=O)NC(=O)[C@H](Cc3ccccc3)NC(=O)[C@H](C)NC(=O)[C@H](C)NC(=O)[C@H](CC(=O)O)NC(=O)[C@H](CC(=O)O)NC1=O)NC(=O)[C@H](CC(C)(C)C)NC(=O)[C@H](CC(=O)O)NC2=O` (stereo partly drawn) [I-798, Ac-PL3-Asp-Npg-B5-Asp-Asp-Ala-Ala-Phe-Asn-PyrS2-3Thi-6C1W-His-NH2] displayed a chromatographic logD in the data set “CHI Log D procedure” of 2.07. Further, in data set [1] (read-out: beta-Catenin FP IC50), the IC50 was determined as 106 nM.

As for `CC(=O)N1CCC[C@]12CC=CCCCC1(CCCC=CCCCOC(=O)N3CC[C@@](C(=O)N[C@@H](Cc4ccsc4)C(=O)N[C@@H](Cc4csc5ccccc45)C(=O)N[C@@H](CCC(N)=O)C(N)=O)(C3)NC(=O)[C@H](Cc3ccccc3)NC(=O)[C@H](Cc3ccccc3)NC(=O)[C@H](C)NC(=O)[C@H](C)NC(=O)[C@H](Cc3ccccc3C(=O)O)NC(=O)[C@H](CC(=O)O)NC1=O)NC(=O)[C@H](CC(C)(C)C)NC(=O)[C@H](CC(=O)O)NC2=O` (stereo partly drawn) [I-853, Ac-PL3-Asp-Npg-B5-Asp-2COOHF-Ala-Ala-Phe-Phe-PyrS2-3Thi-BztA-Gln-NH2], in “CHI Log D procedure”, the chromatographic logD is 2.52. For the same compound, the IC50 in data set [1] (read-out: beta-Catenin FP IC50) was determined as 8 nM.

As for `CC(=O)N1CCC[C@]12CC=CCCCC1(CCCC=CCCCOC(=O)N3CC[C@@](C(=O)N[C@@H](Cc4ccsc4)C(=O)N[C@@H](Cc4csc5ccccc45)C(=O)N[C@@H](CCC(N)=O)C(N)=O)(C3)NC(=O)[C@H](Cc3ccccc3)NC(=O)[C@H](Cc3ccccc3)NC(=O)[C@H](C)NC(=O)[C@H](C)NC(=O)[C@H](CC(N)=O)NC(=O)[C@H](CC(=O)O)NC1=O)NC(=O)[C@H](CC(C)(C)C)NC(=O)[C@H](CC(=O)O)NC2=O` (stereo partly drawn) [I-855, Ac-PL3-Asp-Npg-B5-Asp-Asn-Ala-Ala-Phe-Phe-PyrS2-3Thi-BztA-Gln-NH2], the chromatographic logD in the data set “CHI Log D procedure” was determined as 2.54. Moreover, in data set [1] (read-out: beta-Catenin FP IC50), the IC50 was found to be 22 nM.

Compound `CC(=O)N1CCC[C@]12CC=CCCCC1(CCCC=CCCCOC(=O)N3CC[C@@](C(=O)N[C@@H](Cc4ccsc4)C(=O)N[C@@H](Cc4csc5ccccc45)C(=O)N[C@@H](CCC(N)=O)C(=O)N[C@@H](CCCCNC(=O)CCc4cc(C(F)(F)F)cc(C(F)(F)F)c4)C(N)=O)(C3)NC(=O)[C@H](CC(N)=O)NC(=O)[C@H](Cc3ccccc3)NC(=O)[C@H](C)NC(=O)[C@H](C)NC(=O)[C@H](CC(=O)O)NC(=O)[C@H](CC(=O)O)NC1=O)NC(=O)[C@H](CC(C)(C)C)NC(=O)[C@H](CC(=O)O)NC2=O` (stereo partly drawn) [I-902, Ac-PL3-Asp-Npg-B5-Asp-Asp-Ala-Ala-Phe-Asn-PyrS2-3Thi-BztA-Gln-[35CF3PhPr]Lys-NH2] returned a chromatographic logD in the data set “CHI Log D procedure” of 2.69. In data set [1] (read-out: beta-Catenin FP IC50), the IC50 turned out to be 104 nM.

For `CC(=O)N1CCC[C@]12CC=CCCCC1(CCCC=CCCCCCC[C@@](C)(C(=O)N[C@@H](Cc3ccccc3Cl)C(=O)N[C@@H](Cc3csc4ccccc34)C(=O)N[C@@H](CCC(N)=O)C(N)=O)NC(=O)[C@H](Cc3ccccc3)NC(=O)[C@H](Cc3ccccc3)NC(=O)[C@H](C)NC(=O)[C@H](C)NC(=O)[C@H](CN(CC(=O)O)CC(F)(F)F)NC(=O)[C@H](CC(=O)O)NC1=O)NC(=O)[C@H](CC(C)(C)C)NC(=O)[C@H](CC(=O)O)NC2=O` (stereo partly drawn) [I-931, Ac-PL3-Asp-Npg-B5-Asp-TfeGA-Ala-Ala-Phe-Phe-S8-2C1F-BztA-Gln-NH2], in “CHI Log D procedure”, the chromatographic logD came out at 3.36. For the same compound, the IC50 in data set [1] (read-out: beta-Catenin FP IC50) was 221 nM.

With `CC(=O)N1CCC[C@]12CC=CCCCC1(CCCC=CCCCCCC[C@@](C)(C(=O)N[C@@H](Cc3ccccc3C(F)(F)F)C(=O)N[C@@H](Cc3csc4ccccc34)C(=O)N[C@@H](CCC(N)=O)C(N)=O)NC(=O)[C@H](CC(N)=O)NC(=O)[C@H](Cc3ccccc3)NC(=O)[C@H](C)NC(=O)[C@H](C)NC(=O)[C@H](CN(CC(=O)O)CC(F)(F)F)NC(=O)[C@H](CC(=O)O)NC1=O)NC(=O)[C@H](CC(C)(C)C)NC(=O)[C@H](CC(=O)O)NC2=O` (stereo partly drawn) [I-934, Ac-PL3-Asp-Npg-B5-Asp-TfeGA-Ala-Ala-Phe-Asn-S8-2F3MeF-BztA-Gln-NH2], the chromatographic logD in the data set “CHI Log D procedure” is 2.82. For the same compound, the IC50 in data set [1] (read-out: beta-Catenin FP IC50) came to 69 nM.

As for `C#CCOCCOCCOCCOCCC(=O)NCCCC[C@H](NC(=O)[C@H](CCC(N)=O)NC(=O)[C@H](Cc1csc2ccccc12)NC(=O)[C@H](Cc1ccsc1)NC(=O)[C@]12CCN(C1)C(=O)OCCCC=CCCCC1(CCCC=CC[C@]3(CCCN3C(C)=O)C(=O)N[C@@H](CC(=O)O)C(=O)N[C@@H](CC(C)(C)C)C(=O)N1)C(=O)N[C@@H](CC(=O)O)C(=O)N[C@@H](CC(=O)O)C(=O)N[C@@H](C)C(=O)N[C@@H](C)C(=O)N[C@@H](Cc1ccccc1)C(=O)N[C@@H](CC(N)=O)C(=O)N2)C(N)=O` (stereo partly drawn) [I-938, Ac-PL3-Asp-Npg-B5-Asp-Asp-Ala-Ala-Phe-Asn-PyrS2-3Thi-BztA-Gln-[PropynPEG4]Lys-NH2], in the data set “CHI Log D procedure”, the chromatographic logD turned out to be 2.16. Also, the IC50 in data set [1] (read-out: beta-Catenin FP IC50) amounted to 9 nM.
